Here are results for two compounds from patent publication US10646567B2, “Methods of treating cancer using PD-1 axis binding antagonists and MEK inhibitors” (Genentech, Inc., priority 2011, dated 2020).

Assay [1] has as its system human monocyte-derived dendritic cells. The experiment in a line: Maturation and activation of monocyte-derived dendritic cells with anti-CD40 (FACS). The class given is cell-based. Particulars: for frequency of DCs expressing surface markers of DC maturation and activation: increasing concentrations 0.001 μM to 10 μM, anti-CD40 co-stimulation. The procedure: Briefly, human monocytes were purified from whole blood using StemCell Technologies human monocyte RosetteSep as per manufacturer's instructions. Monocytes were seeded in T175 flasks at approximately 0.5-1.0×10^6 per ml in 50 ng/ml human GM-CSF and 100 ng/ml human IL-4 for 7 days total, with half-media exchanges every 2 days. […] MEK inhibitors and BRAF inhibitor were titrated 10-fold from 10 μM to 0.001 μM such that the final culture concentration was 0.5% DMSO in a total volume of 200 μl per well. Forty-eight hours later, cells were harvested and transferred to a 96-well V-bottom plate. […] HLA-DR,-DP,-DQ-FITC, HLA-ABC-PE, CD83-APC, CD14-FITC, CD80-PE, and CD86-APC. Propidium iodide was included to exclude dead cells. Samples were run on a BD FACSCaliber flow cytometer and data was analyzed using FlowJo software (Tree Star, Inc.).

Assay [2] has as its system colorectal tumors. Put plainly: Colorectal tumor mouse model, G-38963 and anti-PD-L1. It counts as in vivo, mice. Conditions: early (200 mm3) or late (450 mm3) intervention; anti-PD-L1 10 mg/kg ip 3x/week for 3 weeks; G-38963 75 mg/kg orally daily 21 days. The procedure:
To determine if MEKi enhanced the anti-tumor effect of anti-PD-L1 antibodies, mouse models for colorectal tumors were treated with the combination treatment. Briefly, mice were inoculated subcutaneously with tumor cells and allowed to grow tumors. When tumor bearing mice achieved a mean tumor volume of 200 mm3 (FIG. 7A) or 450 mm3 (FIG. 7B), mice were randomly assigned to 1 of 4 treatment groups. […] Mice were monitored for tumor growth and body weight changes.

Assay [3] relates to human CD8+ T cells. The experiment in a line: CD8+ T cell proliferation (3H-thymidine). It counts as cell-based. Conditions: for T cell receptor induced proliferation, anti-CD3 stimulation: 0.01 μM MEKi; for T cell activation, co-stimulation with anti-CD3 and anti-CD28: 10 μM to 0.001 μM MEKi; for T cell proliferation, anti-CD3 stimulation: all MEKi concentrations tested (10 μM to 0.001 μM). As to the method:
Recent studies have shown that MEK inhibitor treatment impairs T lymphocyte function (Boni et al., Cancer Res., 70(13), 2010). To confirm that MEK inhibitor treatment impaired CD8+ T cells, T cells were treated with MEKi in combination with T cell stimulation signals and assayed for T cell proliferation. Briefly, human CD8+ T cells were purified from whole blood using StemCell Technologies human CD8 RosetteSep as per manufacturer's instructions. Purified cells were plated at 200,000 per well in triplicate in 96-well U-bottom plates with 200,000 per well of either anti-CD3 or anti-CD3/anti-CD28 Dynabeads (Invitrogen). MEK inhibitors GDC-0973 and G-38963 were titrated 10-fold from 10 μM to 0.001 μM such that the final culture concentration was 0.5% DMSO in a total volume of 200 μl per well. […] Gluta-MAX, sodium pyruvate, penicillin/streptomycin, and non-essential amino acids. At 48 hours, wells were pulsed with 1 μCi/well of 3H-thymidine and cultured an additional 16 hours prior to freezing and harvest.

Assay [4] relates to Cloudman S91 melanoma tumors. Put plainly: Melanoma tumor mouse model. The class given is in vivo, mice. Particulars: anti-PD-L1 10 mg/kg ip 3x/week for 3 weeks; G-38963 75 mg/kg orally daily 21 days. The procedure: To determine if MEKi enhanced the anti-tumor effect of anti-PD-L1 antibodies, mouse models for melanoma tumors were treated with the combination treatment. Briefly, mice were inoculated subcutaneously with tumor cells and allowed to grow tumors. When tumor bearing mice achieved a mean tumor volume of 100-200 mm3, mice were randomly assigned to 1 of 4 treatment groups. […] Mice were monitored for tumor growth and body weight changes.

Assay [5] deals with human melanoma cell lines and human colorectal cell lines. The experiment in a line: Surface MHC-I expression on human tumor cell lines (FACS). The class given is cell-based. Particulars: 1 micromolar, 24 hours, compared to vehicle treated cells. As to the method: To determine if treatment with MEK inhibitor (MEKi) enhanced immunogenicity of tumor cells, surface expression of MHC-I on tumor cell lines treated with MEK inhibitors GDC-0973 and G-38963 was assayed. Briefly, human melanoma cell lines (Malme-3M, A2058, […][…], SK23, SKMEL-28, 537 Mel, RPMI-795) and human colorectal cell lines (Colo 320 DM, Colo 205, WiDr, Colo 741, RKO, DLD-1, HM7, HCT-15) were treated with 1 micromolar […]-0973 or G-38963, BRAF inhibitor (BRAFi) GDC-0879, or DMSO vehicle for 24 hours. Following treatment, cells were stained for surface MHC Class I expression with an antibody against […] for subsequent FACS analysis. Data shown is for treatment […]-0973. Labeled isotype-matched antibodies were used to determine the level of non-specific staining.

Assay [6] has as its system mouse tumor cell lines (MC38, B16.F10, CT26). The experiment in a line: Surface MHC-I expression on mouse tumor cell lines (FACS). It counts as cell-based. Particulars: 1 micromolar, 24 hours, compared to vehicle treated cells. The procedure:
To determine if treatment with MEK inhibitor (MEKi) enhanced immunogenicity of mouse tumor cells similarly to human tumor cells, surface expression of MHC-I on mouse tumor cell lines treated with MEKi GDC-0973 was assayed. Briefly, mouse melanoma cell lines ([…]) and a mouse colorectal cell line (CT26) were treated with MEKi GDC-0973, G-38963 or vehicle. Briefly, cells were stimulated for 24 hours with 1 micromolar MEK inhibitor or DMSO vehicle control. Following treatment, cells were surfaced stained with an antibody against MHC-I (H-2D) and expression was assayed by subsequent FACS analysis. Labeled isotype-matched antibodies were used to determine the level of non-specific staining.

Assay [7] deals with serum IL-10 and KC in tumor bearing animals. The experiment in a line: Serum cytokine levels in tumor bearing mice (Bio-Plex). The class given is in vivo. Conditions: melanoma and colorectal models, 7 days after treatment. An excerpt:
Briefly, 7 days after treatment, mice were anaesthetized and bled retro-orbitally for serum.

For assay [8], the system named is human peripheral blood mononuclear cells. The experiment in a line: Surface MHC-I expression on human PBMCs (FACS). It counts as cell-based. Conditions: 1 μM or 3 μM, 24 hours; CD4+ T cells, CD8+ T cells, B cells, monocytes; compared to vehicle. The procedure:
To determine if enhanced cell surface expression of MHC-I is specific to tumor cells, the effect of MEKi treatment on MHC-I expression on human peripheral blood mononuclear cells (PMBCs) was assayed. Briefly, PMBCS were isolated from whole blood by first diluting it with an equal volume of room temperature PBS and subsequent overlay onto Ficoll-filled Leucosep tubes (Greiner Bio-One). […] Gluta-MAX, sodium pyruvate, penicillin/streptomycin, and non-essential amino acids). Cells were plated in 6 well plates at 4×10^6 per well with a total of 4 ml per well. MEK inhibitor GDC-0973 was added at either 1 μM or 3 μM. Cells were harvested 24 hours later and distributed to a 96-well V-bottom plate for FACS staining. […] CD3-FITC, HLA-ABC-PE, CD4-APC, CD19-FITC, and CD14-FITC. Propidium iodide was included to exclude dead cells. Samples were run on a BD FACSCaliber flow cytometer and data was analyzed using FlowJo software (Tree Star, Inc.).

In assay [9] the test system is mouse bone marrow dendritic cells. Put plainly: Activation of mouse bone marrow derived dendritic cells (FACS). Particulars: GDC-0973 1 μM, anti-PD-L1 10 μg/ml, 48 hours. The class given is cell-based.
Experimental: Briefly, mouse bone marrow cells were isolated and seeded at 2×10^6 per 10 ml total volume per 10 cm non-tissue culture treated dishes with 40 ng/ml mouse GM-CSF for 7 days. Fresh media was half-exchanged every 2-3 days. Culture medium was RPMI-1640 with 10% fetal bovine serum, 20 μM HEPES, 55 μM 2-mercaptoethanol, 50 μg/ml gentamicin, and 1:100 dilutions of the following supplements from Gibco: Gluta-MAX, sodium pyruvate, penicillin/streptomycin, and non-essential amino acids. On day 7 all cells were harvested and washed, then seeded at 100,000 cells/well in a 96-well flat-bottom plate. MEK inhibitor GDC-0973 was added at a final concentration of 1 μM, anti-PDL1 human/mouse reverse chimera or anti-Ragweed mouse IgG2a isotype control (Genentech PUR 22251) were added at 10 μg/ml. […] After 48 hours of stimulation, cells were harvested and transferred to a 96-well V-bottom plate. Samples were first Fc receptor blocked (purified anti-CD16/CD32 from BD Biosciences, 5 μg/ml) and then stained with I-A/I-E-FITC, H-2Db/H-2Kb-biotin (followed by streptavidin-PE), CD11c-APC, CD86-FITC, and CD80-PE (all from BD Biosciences). Propidium iodide was included to exclude dead cells. Samples were run on a BD FACSCaliber flow cytometer and data was analyzed using FlowJo software (Tree Star, Inc.).
Assay [10] relates to CT26 murine colorectal cells. The experiment in a line: CT26 colorectal tumor model, GDC-0973 dose study (first study). The class given is in vivo, BALB/c mice. The procedure:
For the first study, female BALB/c mice were inoculated subcutaneously in the unilateral thoracic region with 100,000 CT26 murine colorectal cells in 100 μL of HBSS:matrigel. […] Groups of 10 mice were orally given the following in a volume of 200 μl daily for 21 days: Group 1 received MCT vehicle; Group 2 received 0.5 mg/kg GDC-0973; Group 3 received 1.0 mg/kg GDC-0973; Group 4 received 2.0 mg/kg GDC-0973; Group 5 received 3.0 mg/kg GDC-0973; Group 6 received 4.0 mg/kg GDC-0973; Group 7 received 5.0 mg/kg GDC-0973; Group 8 received 6.0 mg/kg GDC-0973; and Group 9 received 7.5 mg/kg GDC-0973. For both studies, mice were monitored for tumor growth and body weight changes two to three times per week for the duration of the study. […] Fred V. Fowler Company; Newton, Mass.) with length and width measurements perpendicular to one another, and tumor volume was calculated using the equation: Tumor Volume (mm^3)=(Length×Width^2)×0.5 For measurement of body weights, mice were weighed using an Adventura Pro AV812 scale (Ohaus Corporation; Pine Brook, N.J.). Percent body weight change was calculated using the equation: Body weight change (%)=[(WeightDay new−WeightDay 0)/WeightDay 0]×100 Data was analyzed using R, version 2.9.2 (R Development Core Team 2008; R Foundation for Statistical Computing; Vienna, Austria), and the mixed models were fit within R using the nlme package, version 3.1-96 (Pinheiro J et al., R package version 3. 2009, 1-96). Plotting was performed in Prism, version 5.0b for Mac (GraphPad Software, Inc.; La Jolla, Calif.). A mixed modeling approach was used to analyze the repeated measurement of tumor volumes from the same animals over time (Pinheiro J et al., Statistics and Computing, Springer. 2010). This approach addressed both repeated measurements and modest dropouts before study end for reasons classifiable statistically as missing at random (MAR). The fixed effect changes in log2 (volume) by time and dose are modeled as the sum of the main effects and interaction of a natural cubic regression spline basis in time with an auto-determined natural spline basis in dose. Intercepts and growth rates (slopes) were assumed to vary randomly by animal. […] Complete Response (CR) was defined as an individual animal whose tumor volume fell below the Limit of Detection (LOD), at any time during the study. Partial Response (PR) was defined as an individual animal whose tumor volume decreased by 50% of its initial tumor volume at any time during the study. Overall Response Rate (ORR) was defined as the sum of the complete and partial responses. Time To Progression 5X (TTP5X) was defined as the time in days for a group's fitted tumor volume (based upon the mixed modeling analysis described above) to exceed 5 times the starting volume, rounded to the nearest half day and reported as the TTP5X for that group. Linear mixed-effects analysis was also employed to analyze the repeated measurement of body weight changes from the same animals over time.

The test system of assay [11] is CT26 murine colorectal cells. Put plainly: CT26 colorectal tumor model, anti-PD-L1 and GDC-0973 combination (second study). Conditions: GDC-0973 7.5 mg/kg orally daily for 21 days. The class given is in vivo, BALB/c mice.
Experimental: For the second study, female BALB/c mice were inoculated subcutaneously in the unilateral thoracic region with 100,000 CT26 murine colorectal cells in 100 μL of HBSS:matrigel. When mice achieved a mean tumor volume of approximately 200 mm3, they were randomly assigned to one of six different treatment groups on experimental day 0 and treatment was initiated on experimental day 1.
For both studies, mice were monitored for tumor growth and body weight changes two to three times per week for the duration of the study. For measurement of tumor growth, tumor volume was measured using UltraCal-IV calipers (Model 54-10-111; Fred V. Fowler Company; Newton, Mass.) with length and width measurements perpendicular to one another, and tumor volume was calculated using the equation: Tumor Volume (mm^3)=(Length×Width^2)×0.5
Data was analyzed using R, version 2.9.2 (R Development Core Team 2008; R Foundation for Statistical Computing; Vienna, Austria), and the mixed models were fit within R using the nlme package, version 3.1-96 (Pinheiro J et al., R package version 3. 2009, 1-96). […] A mixed modeling approach was used to analyze the repeated measurement of tumor volumes from the same animals over time (Pinheiro J et al., Statistics and Computing, Springer. 2010). This approach addressed both repeated measurements and modest dropouts before study end for reasons classifiable statistically as missing at random (MAR). The fixed effect changes in log2 (volume) by time and dose are modeled as the sum of the main effects and interaction of a natural cubic regression spline basis in time with an auto-determined natural spline basis in dose. Intercepts and growth rates (slopes) were assumed to vary randomly by animal. Tumor growth inhibition as a percentage of the control-treated group (% TGI) was calculated as the percentage of the area under the fitted curve (AUC) for the respective treatment group per day in relation to the control while the control treated mice were still on study, using the equation: % TGI=100×(1−AUCdose/AUCvehicles)

Turning to `O=C(NOCCO)c1oc2ccncc2c1Nc1ccc(I)cc1F` [Compound G-38963], the “frequency of DCs expressing surface markers of DC maturation and activation” value in assay [1] was “enhanced the frequency of DCs expressing these surface markers”. Also, the tumor growth entry in assay [2] is “highly effective as a single agent therapy at preventing tumor growth”. In assay [3], the “T cell receptor induced proliferation, anti-CD3 stimulation” value is reported as “nearly complete inhibition”; the “T cell activation, co-stimulation with anti-CD3 and anti-CD28” value is “sufficient to overcome the inhibitory effect of MEKi”; the “T cell proliferation, anti-CD3 stimulation” value is “reduced the stimulatory effect of anti-CD3”. In addition, in assay [4], the tumor growth entry is “highly effective as a single agent therapy at preventing tumor growth”. Also, the “cell surface expression of MHC-I” value in [5] is recorded as “upregulated”. The “cell surface expression of MHC-I” value in [6] is listed as “upregulated”. For the same compound, the “serum IL-10 level” value in assay [7] was “decreased”.
Regarding `O=C(c1ccc(F)c(F)c1Nc1ccc(I)cc1F)N1CC(O)([C@@H]2CCCCN2)C1` [GDC-0973, Methanone, [3,4-difluoro-2-[(2-fluoro-4-iodophenyl)amino]phenyl][3-hydroxy-3-(2S)-2-piperidinyl-1-azetidinyl]-], the “cell surface expression of MHC-I” value in [8] was “not upregulated”; in assay [5], “upregulated”; in assay [6], “upregulated”. For the same compound, the “frequency of cells expressing CD83, MHC-II and CD86” value in [1] (1 μM, anti-CD40, 48 hours, compared to vehicle) was “increased”. Besides, the “frequency of DCs expressing surface markers of DC maturation and activation” value in [1] is “enhanced the frequency of DCs expressing these surface markers”. Also, in assay [3], the “T cell receptor induced proliferation, anti-CD3 stimulation” value is on record as “nearly complete inhibition”. In [3], the “T cell activation, co-stimulation with anti-CD3 and anti-CD28” value is given as “sufficient to overcome the inhibitory effect of MEKi”. Further, the “T cell proliferation, anti-CD3 stimulation” value in assay [3] is recorded as “reduced the stimulatory effect of anti-CD3”. Further, in [9], the “DC surface activation markers MHC-II, CD80, CD86” value is on record as “enhanced”. Moreover, the “DC surface expression of MHC-I” value in [9] is given as “enhanced”. The “% TGI” value is listed as −8% in assay [10] (0.5 mg/kg orally daily for 21 days); −16% in assay [10] (1.0 mg/kg orally daily for 21 days); −21% in assay [10] (2.0 mg/kg orally daily for 21 days); −4% in assay [10] (3.0 mg/kg orally daily for 21 days); 27% in [10] (4.0 mg/kg orally daily for 21 days); 55% in assay [10] (5.0 mg/kg orally daily for 21 days). The results for the “% TGI” value in assay [10] (6.0 mg/kg orally daily for 21 days), in assay [10] (7.5 mg/kg orally daily for 21 days) and in [11] were 72%, 87% and 71%, respectively. Also, in [10] (increasing doses, maximal inhibition at 7.5 mg/kg at 20 days post-treatment), the tumor growth result is recorded as “suppressed tumor growth”. For the same compound, in assay [11], the “% CR” value was determined as 0%. In addition, the “% PR” value in [11] is recorded as 10%. For the same compound, the “TTP5X” value in assay [11] is reported as 21.5 days.
